Assay results published in US20190282600A1, “COMBINATION THERAPIES TARGETING TERT DEPENDENCY FOR CANCER THERAPY” (The Wistar Institute of Anatomy and Biology, priority 2018, published 2019).

Columns and labels:
[1] = system: prostate, breast and lung cancer, BRAF-V600E-mutant melanoma; details: Chae et al., 2012; cited from earlier work
[2] = system: NRAS mutant melanoma cells; assay: Cell death by flow cytometry (PSVue or Annexin V/PI); type: cell-based, Human; details: cells transduced with TERT shRNA, 7 days post infection 5 μM Gamitrinib for 48 h
Protocol: FIGS. 2a to 2c show NRAS^mut melanoma cells (FIG. 2a), BRAF-V600E/NRAS mutant cells derived from melanoma patients resistant to BRAF/MEK inhibitors (FIG. 2b), or non-transformed melanocytes and fibroblasts (FIG. 2c) were treated with 6-thio-dG for 7 days. Cell viability was measured by Alamar Blue assay and calculated relative to DMSO-treated cells. […] Cell death was assessed by PSVUe staining. Percent of apoptotic cells is shown. […] Mean TRF length expressed as kilobase pairs is indicated at the bottom. […] FIG. 2g provides a bar graph showing that DNA damage was assessed by γH2AX staining. Data represent average from three independent experiments ±SEM. *p<0.05; **p<0.01; ***p<0.005 in unpaired Student's t-test. As presented in FIG. 2h, mice bearing established WM3000 or M93-047 NRAS^mut tumors were treated with vehicle control or 6-thio-dG (2.5 mg/kg i.p; q.d). Tumor volume was measured and average tumor volume (n=4) ±SEM was plotted vs. time.
FIGS. 3a to 3g provides graphs showing that telomere dysfunction enhances oxidative stress leading to upregulation of an antioxidant program. […] Mitochondrial superoxide production was measured by MitoSox Red fluorescence (FIGS. 3c, and 3d) and expressed as fluorescence relative to vector or DMSO controls. […] FIG. 3f provides a bar graph showing that SOD2 was silenced using shRNA. Transduced M93-047 cells were treated with DMSO or 1 μM of 6-thio-dG and cell death was assessed by Annexin V/PI straining. As presented in FIG. 3g, M93-047 cells were transduced with a SOD2 lentiviral construct or empty vector control (pLX304). Transduced cells were treated with increasing doses (1, 2.5 and 5 μM) of 6-thio-dG for 7 days and cell death was assessed. Data represent average from three independent experiments ±SEM. *p<0.05; **p<0.01; ***p<0.005 in unpaired Student's t-test.
FIGS. 4a to 4e provides bar graphs showing that induction of telomere and mitochondrial dysfunction triggers cell death in NRAS mutant melanoma. […] Cell death was assessed by Annexin V and PI staining. […] Cells were stained with Annexin V and PI and percent cell death was determined by flow cytometry. […] P values were calculated using unpaired Student's t-test; * p<0.05; *** p<0.005.
As presented in FIG. 16a, SOD2 was silenced using shRNA. Transduced WM3000 cells were treated with DMSO or 1 μM of 6-thio-dG and cell death was assessed by Annexin V/PI straining. […] Transduced cells were treated with increasing doses (1, 2.5 and 5 μM) of 6-thio-dG for 10 days and cell death was assessed. […]
In FIG. 17a, NRAS^mut melanoma cells were treated with 6-thio-dG (1 μM) for 7 days total. […] Percent cell death was determined by flow cytometry following staining of cells with Annexin V and Propidium iodide. […]

[3] = system: NRAS-WT/BRAF-WT melanoma cells; assay: Cell death by Annexin V/PI flow cytometry; type: cell-based, Human; details: 1 μM 6-thio-dG, 5 μM Gam, single agents or in combination
Protocol: (§1) FIGS. 5a to 5e provide bar graphs showing that combination treatment with 6-Thio-dG and Gamitrinib (Gam) triggers death selectively in NRAS mutant tumor cells. NRAS-WT/BRAF-WT melanoma cells (FIG. 5a), NRAS-WT/BRAF-mut melanoma cells (FIG. 5b), NRAS mutant neuroblastoma cells (FIG. 5c), NRAS-WT/KRAS-mutant colon cancer cells (FIG. 5d), and NRAS-WT/KRAS-mutant lung cancer cells were treated with 1 μM 6-thio-dG for 5 days (FIG. 5e). At day 5, culture medium was replaced and cells treated with 1 μM 6-thio-dG plus 5 μM Gam for two more days. Cells were stained with Annexin V and PI and percent cell death was determined by FACS. Data represent average of three independent experiments +/−SEM; p values were calculated using un-paired Student's t-test; *p<0.05; **p<0.001.
(§2) Cells were seeded in 96-well plates and treated with drugs. After 6 days, cell viability was assessed following 6h incubation with […] Alamar Blue (ThermoFisherScientific, Philadelphia, Pa.) by measuring fluorescence using an EnVision Xcite Multilabel plate reader (Perkin Elmer, Waltham, Mass.). Cell death was determined by flow cytometry using PSVue-643 (Molecular Targeting Technologies) or Annexin V (640919, Biolegend, San Diego, Calif.) and Propidium Iodide (Sigma) staining. Samples were analyzed using a BD LSRII flow cytometer (BD Biosciences, San Jose, Calif.).

[4] = system: BRAF mutant melanoma cells; assay: Cell death by Annexin V/PI flow cytometry; type: cell-based, Human; details: 1 μM 6-thio-dG, 5 μM Gam, single agent or in combination
Protocol: as §1, §2

[5] = system: SOD2; details: Siegelin et al., 2011; cited from earlier work
[6] = system: NRAS mutant cells; details: Chae et al., 2012; cited from earlier work
[7] = system: KRAS mutant A549 cells; assay: Cell death by Annexin V/PI flow cytometry; type: cell-based; details: 1 μM 6-thio-dG, 5 μM Gam
Protocol: as §1, §2

[8] = system: KRAS mutant HCT116 cells; assay: Cell death by Annexin V/PI flow cytometry; type: cell-based; details: 1 μM 6-thio-dG, 5 μM Gam
Protocol: as §1, §2

[9] = system: NRAS mutant SKNAS neuroblastoma cells; assay: Cell death by Annexin V/PI flow cytometry; type: cell-based; details: 1 μM 6-thio-dG, 5 μM Gam, single agents or in combination
Protocol: as §1, §2

[10] = system: NRAS mutant melanoma cells; assay: Telomere dysfunction-induced foci (TIF) assay, IF-FISH; type: cell-based, Human; details: WM3000 cells transduced with TERT shRNA, NAC 1 mM for 7 days
Protocol: NRAS mutant melanoma cells WM3000 were transduced with TERT shRNA and treated with NAC (mM) for 7 days. […] Representative images are shown. (scale bar=10 μm). Quantification of TIF positive cells is plotted in FIG. 13b. Cells were scored as TIF positive when three or more g-H2AX foci (green) were co-localizing with telomere foci (red). Data represent average of thirteen fields imaged +/−SD.
NRAS^mut melanoma cells were treated with 6-thio-dG for 6, 12 or 18 days. As presented in FIG. 15a, relative cell number was assessed by Crystal Violet assay and calculated relative to DMSO-treated cells. Data represent average of three independent experiments +/−SD. […] NRAS^mut cells were treated with 6-thio-dG for 7 days and telomere induced foci (TIF) was determined by indirect immunofluorescence combined with fluorescence in situ hybridization (FISH) (FIG. 15c). […] Quantification of TIF assay is plotted in FIG. 15d. Cells were scored as TIF positive when four or more γ-H2AX foci (green, center row of FIG. 15c labelled as γH2AX) were co-localizing with telomere foci (red, top row of FIG. 15c labelled as Telomeres). […] P values were calculated by unpaired Student's t-test.
For TIF analysis, indirect immunofluorescence (IF) combined with fluorescence in situ hybridization (FISH) was performed as previously described with some modifications. […] TIF were quantified from at least three independent experiments.

[11] = system: NRAS mutant melanoma spheroids; assay: 3D collagen-embedded tumor spheroids, Live/Dead staining; type: cell-based, Human; details: 6-thio-dG 5 μM and Ganetespib 5 μM, day 7
Protocol: FIGS. 6a to 6e provide results showing that combining 6-thio-dG and Gamitrinib inhibits the growth of 3D melanoma spheroids and NRAS-mutant xenograft tumors. […] 4a to 4e. On day 7, spheroids were stained with Calcein AM (live cells; green) and EtBr (dead cells; red) and imaged using an inverted microscope (4X; scale bar=250 μm). […] P values were calculated using unpaired Student's t-test. *p<0.05, ** p<0.01, ***p<0.005, when comparing vehicle control vs. combination treatment groups. As presented in FIG. 6d, treatment was discontinued after 14 days, and mice were followed until tumor volume reached a preset volume (1500 mm^3). Kaplan Meier survival curves of mice treated for 14 days. p-values were calculated by Mantel-Cox log-rank test; *p<0.05, **p<0.01, ***p<0.005. Animal weight (grams) before treatment (Start of TX) and at the end of the study (End of TX) was assessed, recorded for every mouse enrolled in the study and plotted in FIG. 6e. Mean and SEM are depicted (n=7 mice/treatment group). Statistical significance was assessed by unpaired Student's t-test.
In FIG. 17a, NRAS^mut melanoma cells were treated with 6-thio-dG (1 μM) for 7 days total. At day 5, culture medium was replaced and cells were treated with 1 μM 6-thiodG plus 1 mM Phenformin for two more days. Percent cell death was determined by flow cytometry following staining of cells with Annexin V and Propidium iodide. […]

[12] = literature; cited from earlier work
[13] = literature; cited from earlier work; remark: listed apart in the source

Gamitrinib
mitochondrial membrane potential [1]: rapid and complete loss of mitochondrial membrane potential | cell death (Annexin V/PI) [2]: enhanced the cytotoxic effects of Gamitrinib | cell death [3]: did not induce cell death | cell death [4]: 75-80% | SOD2 levels [5]: downregulate SOD2 levels | anti-cancer activity as a single agent [6]: limited activity | cell death [7]: did not induce substantial death | cell death [8]: did not induce substantial death | cell death [9]: triggered significant death

CC(=O)N[C@@H](CS)C(=O)O [NAC, N-acetyl-L-cysteine]
number of TIF [10]: attenuated the number of TIF

CC(C)c1cc(-c2n[nH]c(=O)n2-c2ccc3c(ccn3C)c2)c(O)cc1O [ganetespib]
enhancement of 6-Thio-dG efficacy in spheroids [11]: did not enhance the efficacy of 6-Thio-dG

imetelstat
activity [12]: limited activity | efficacy [13]: efficacy
